# Assay results: PubChem BioAssay AID1963851 (Molecular Pharmacology Branch, DTP, NCI, 2024)
# Test system: 188146-221-R-J1-PDC complex spheroid viability
# Test: Anticancer human tumor 188146-221-R-J1-PDC patient-derived colon adenocarcinoma cell line growth inhibition [POLQ]
# Details: for IC50: curve of first compound; for viability, T/C: stronger effect = lower value
# How it was run: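 PDC + HUVEC + MSC complex spheroids; POLQ inhibitors ± partner drugs; top conc. at/near clinical Cmax, else 10 microM (SN-38 1 microM), half-log dilutions; 37 degrees C, 5% CO2.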
# [1] = second compound 0.0316 µM, first compound 0.0316 µM
# [2] = second compound 0.0316 µM, first compound 0.1 µM
# [3] = second compound 0.0316 µM, first compound 0.316 µM
# [4] = second compound 0.0316 µM, first compound 1 µM
# [5] = second compound 0.0316 µM, first compound 3.16 µM
# [6] = second compound 0.0316 µM, first compound 10 µM
# [7] = second compound 0.1 µM, first compound 0.0316 µM
# [8] = second compound 0.1 µM, first compound 0.1 µM
# [9] = second compound 0.1 µM, first compound 0.316 µM
# [10] = second compound 0.1 µM, first compound 1 µM
# [11] = second compound 0.1 µM, first compound 3.16 µM
# [12] = second compound 0.1 µM, first compound 10 µM
# [13] = second compound 0.316 µM, first compound 0.0316 µM
# [14] = second compound 0.316 µM, first compound 0.1 µM
# [15] = second compound 0.316 µM, first compound 0.316 µM
# [16] = second compound 0.316 µM, first compound 1 µM
# [17] = second compound 0.316 µM, first compound 3.16 µM
# [18] = second compound 0.316 µM, first compound 10 µM
# [19] = second compound 1 µM, first compound 0.0316 µM
# [20] = second compound 1 µM, first compound 0.1 µM
# [21] = second compound 1 µM, first compound 0.316 µM
# [22] = second compound 1 µM, first compound 1 µM
# [23] = second compound 1 µM, first compound 3.16 µM
# [24] = second compound 1 µM, first compound 10 µM
# [25] = second compound 3.16 µM, first compound 0.0316 µM
# [26] = second compound 3.16 µM, first compound 0.1 µM
# [27] = second compound 3.16 µM, first compound 0.316 µM
# [28] = second compound 3.16 µM, first compound 1 µM
# [29] = second compound 3.16 µM, first compound 3.16 µM
# [30] = second compound 3.16 µM, first compound 10 µM
# [31] = second compound 10 µM, first compound 0.0316 µM
# [32] = second compound 10 µM, first compound 0.1 µM
# [33] = second compound 10 µM, first compound 0.316 µM
# [34] = second compound 10 µM, first compound 1 µM
# [35] = second compound 10 µM, first compound 3.16 µM
# [36] = second compound 10 µM, first compound 10 µM
# 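Also: spheroids exposed to compounds for seven days.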
# 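For viability, T/C in this document: 100% = DMSO vehicle control viability.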
compound,measurement,setting,value
O=C(c1cc(Cc2n[nH]c(=O)c3ccccc23)ccc1F)N1CCN(C(=O)C2CC2)CC1 + COC1C(OC(N)=O)C(O)C(Oc2ccc3c(O)c(NC(=O)c4ccc(O)c(CC=C(C)C)c4)c(=O)oc3c2C)OC1(C)C,IC50,second compound 0.0316 µM,> 10 µM
same,IC50,second compound 0.1 µM,> 10 µM
same,IC50,second compound 0.316 µM,> 10 µM
same,IC50,second compound 1 µM,> 10 µM
same,IC50,second compound 3.16 µM,> 10 µM
same,IC50,second compound 10 µM,> 10 µM
same,"viability, T/C",[1],93.5%
same,"viability, T/C",[2],88.6%
same,"viability, T/C",[3],100%
same,"viability, T/C",[4],98.4%
same,"viability, T/C",[5],99.5%
same,"viability, T/C",[6],74.3%
same,"viability, T/C",[7],107%
same,"viability, T/C",[8],102%
same,"viability, T/C",[9],97.1%
same,"viability, T/C",[10],106%
same,"viability, T/C",[11],91.3%
same,"viability, T/C",[12],85.2%
same,"viability, T/C",[13],108%
same,"viability, T/C",[14],94.1%
same,"viability, T/C",[15],97.7%
same,"viability, T/C",[16],105%
same,"viability, T/C",[17],90.7%
same,"viability, T/C",[18],72.7%
same,"viability, T/C",[19],106%
same,"viability, T/C",[20],104%
same,"viability, T/C",[21],104%
same,"viability, T/C",[22],96.3%
same,"viability, T/C",[23],89.5%
same,"viability, T/C",[24],74.7%
same,"viability, T/C",[25],108%
same,"viability, T/C",[26],107%
same,"viability, T/C",[27],101%
same,"viability, T/C",[28],91.7%
same,"viability, T/C",[29],105%
same,"viability, T/C",[30],96.6%
same,"viability, T/C",[31],101%
same,"viability, T/C",[32],103%
same,"viability, T/C",[33],98.8%
same,"viability, T/C",[34],97.1%
same,"viability, T/C",[35],108%
same,"viability, T/C",[36],80.5%
C#Cc1c(F)ccc2cc(O)cc(-c3ncc4c(N5CC6CCC(C5)N6)nc(OCC56CCCN5CC(F)C6)nc4c3F)c12 (stereo not drawn) + Cc1cccc(N(C)C(=O)C2C(O)CCN2c2nc(C)cc(C(F)(F)F)c2C#N)c1,IC50,second compound 0.0316 µM,> 10 µM
same,IC50,second compound 0.1 µM,> 10 µM
same,IC50,second compound 0.316 µM,> 10 µM
same,IC50,second compound 1 µM,> 10 µM
same,IC50,second compound 3.16 µM,> 10 µM
same,IC50,second compound 10 µM,> 10 µM
same,"viability, T/C",[1],104%
same,"viability, T/C",[2],105%
same,"viability, T/C",[3],104%
same,"viability, T/C",[4],97.9%
same,"viability, T/C",[5],88.6%
same,"viability, T/C",[6],90.6%
same,"viability, T/C",[7],101%
same,"viability, T/C",[8],112%
same,"viability, T/C",[9],101%
same,"viability, T/C",[10],95.5%
same,"viability, T/C",[11],96%
same,"viability, T/C",[12],92.6%
same,"viability, T/C",[13],108%
same,"viability, T/C",[14],106%
same,"viability, T/C",[15],96.9%
same,"viability, T/C",[16],85.3%
same,"viability, T/C",[17],93.2%
same,"viability, T/C",[18],84.1%
same,"viability, T/C",[19],111%
same,"viability, T/C",[20],101%
same,"viability, T/C",[21],94.9%
same,"viability, T/C",[22],93.4%
same,"viability, T/C",[23],89.8%
same,"viability, T/C",[24],85.5%
same,"viability, T/C",[25],99.7%
same,"viability, T/C",[26],98.2%
same,"viability, T/C",[27],96.8%
same,"viability, T/C",[28],74.9%
same,"viability, T/C",[29],95.8%
same,"viability, T/C",[30],98.2%
same,"viability, T/C",[31],107%
same,"viability, T/C",[32],75%
same,"viability, T/C",[33],99.8%
same,"viability, T/C",[34],90%
same,"viability, T/C",[35],88.6%
same,"viability, T/C",[36],78.3%
CC1COCCN1c1cc(C2(S(C)(=N)=O)CC2)nc(-c2ccnc3[nH]ccc23)n1 (stereo not drawn) + COC1C(OC(N)=O)C(O)C(Oc2ccc3c(O)c(NC(=O)c4ccc(O)c(CC=C(C)C)c4)c(=O)oc3c2C)OC1(C)C,IC50,second compound 0.0316 µM,4.2 µM
same,IC50,second compound 0.1 µM,4.04 µM
same,IC50,second compound 0.316 µM,4.05 µM
same,IC50,second compound 1 µM,4.53 µM
same,IC50,second compound 3.16 µM,3.45 µM
same,IC50,second compound 10 µM,3.16 µM
same,"viability, T/C",[1],102%
same,"viability, T/C",[2],95.8%
same,"viability, T/C",[3],98.7%
same,"viability, T/C",[4],94.2%
same,"viability, T/C",[5],58.6%
same,"viability, T/C",[6],23.6%
same,"viability, T/C",[7],114%
same,"viability, T/C",[8],100%
same,"viability, T/C",[9],90.5%
same,"viability, T/C",[10],72.5%
same,"viability, T/C",[11],62.2%
same,"viability, T/C",[12],26.8%
same,"viability, T/C",[13],96.2%
same,"viability, T/C",[14],97.3%
same,"viability, T/C",[15],94.7%
same,"viability, T/C",[16],84.8%
same,"viability, T/C",[17],56.4%
same,"viability, T/C",[18],27%
same,"viability, T/C",[19],97.1%
same,"viability, T/C",[20],104%
same,"viability, T/C",[21],88.6%
same,"viability, T/C",[22],87.1%
same,"viability, T/C",[23],61.2%
same,"viability, T/C",[24],23.9%
same,"viability, T/C",[25],101%
same,"viability, T/C",[26],100%
same,"viability, T/C",[27],84.2%
same,"viability, T/C",[28],69.4%
same,"viability, T/C",[29],54%
same,"viability, T/C",[30],26.8%
same,"viability, T/C",[31],102%
same,"viability, T/C",[32],88.8%
same,"viability, T/C",[33],103%
same,"viability, T/C",[34],74.5%
same,"viability, T/C",[35],51.9%
same,"viability, T/C",[36],24%
CCc1cc2c(N3CCc4c(cc(Cn5ccnc5)cc4-c4cn(C)nc4C(F)(F)F)C3=O)ccnc2c(OC)n1 + Cc1cccc(N(C)C(=O)C2C(O)CCN2c2nc(C)cc(C(F)(F)F)c2C#N)c1,IC50,second compound 0.0316 µM,9.01 µM
same,IC50,second compound 0.1 µM,> 10 µM
same,IC50,second compound 0.316 µM,8.88 µM
same,IC50,second compound 1 µM,7.87 µM
same,IC50,second compound 3.16 µM,8.27 µM
same,IC50,second compound 10 µM,5.92 µM
same,"viability, T/C",[1],90.5%
same,"viability, T/C",[2],92%
same,"viability, T/C",[3],93.5%
same,"viability, T/C",[4],102%
same,"viability, T/C",[5],67.8%
same,"viability, T/C",[6],48.2%
same,"viability, T/C",[7],117%
same,"viability, T/C",[8],78.8%
same,"viability, T/C",[9],97.8%
same,"viability, T/C",[10],90.8%
same,"viability, T/C",[11],77.8%
same,"viability, T/C",[12],49.8%
same,"viability, T/C",[13],107%
same,"viability, T/C",[14],114%
same,"viability, T/C",[15],85.2%
same,"viability, T/C",[16],78.6%
same,"viability, T/C",[17],66.5%
same,"viability, T/C",[18],47.1%
same,"viability, T/C",[19],107%
same,"viability, T/C",[20],98.2%
same,"viability, T/C",[21],91.5%
same,"viability, T/C",[22],105%
same,"viability, T/C",[23],71%
same,"viability, T/C",[24],44.4%
same,"viability, T/C",[25],90.1%
same,"viability, T/C",[26],91.4%
same,"viability, T/C",[27],91.6%
same,"viability, T/C",[28],81.7%
same,"viability, T/C",[29],66.6%
same,"viability, T/C",[30],46.7%
same,"viability, T/C",[31],92.5%
same,"viability, T/C",[32],82.5%
same,"viability, T/C",[33],74.1%
same,"viability, T/C",[34],69.6%
same,"viability, T/C",[35],61.2%
same,"viability, T/C",[36],40.7%
